Source: article PMC10384782, “New Phenolic Lipids from the Leaves of Clausena harmandiana Inhibit SARS-CoV-2 Entry into Host Cells” (Molecules, 2023)
“Also recorded” adds a separate entry of the source.

Assays:
[1] = tested on: HCoV-229E; assay: Time-of-drug addition assay in HCoV-229E-Luc-infected Huh7 cells; type: cell-based; details: 2 and 3 at 0.2 µM; for inhibition of infection when added after virus inoculation (replication step): Remdesivir 0.1 µM, luciferase activity; for inhibition of infection when present during the virus entry step: Q3G 25 µM, co-added with virus for 1 h
[2] = tested on: HCoV-229E; assay: HCoV-229E-Luc infection inhibition assay (fractions and pure compounds) in Huh7 cells; type: cell-based; details: for IC50: Human coronavirus 229E, Huh-7, 12 h, read-out: IC50 (concentration inhibited infection by 50%)
[3] = tested on: SARS-CoV-2; assay: microbe, parasite or virus in culture; type: cell-based; details: for selectivity index (SI): SARS-CoV-2, Vero-E6 cells; for IC50: Severe acute respiratory syndrome coronavirus 2, Vero C1008, 48 h, read-out: IC50 against SARS-CoV-2
[4] = tested on: HCoV-229E; assay: microbe, parasite or virus in culture; type: cell-based; details: Human coronavirus 229E, Huh-7; read-out: inhibition of infection after pre-incubation of virus particles
[5] = in vitro; details: human
[6] = in vitro; details: African green monkey
[7] = tested on: SARS-CoV-2; type: cell-based

SMILES	inhibition of infection when added after virus inoculation (replication step) [1]	inhibition of infection when present during the virus entry step [1]	SI, selectivity index (CC50/IC50) [2]	effect on HCoV-229E-Luc infection at 0.01 µM without pre-incubation ([2]; Huh7 cells)	IC50 [2]	selectivity index (SI) [3]	IC50 [3]	inhibition at 0.2 µM [4]	CC50 [5]	CC50 [6]	decrease of viral progeny (residual infectivity) [7]	antiviral activity against HCoV-229E (in words) ([2]; non-cytotoxic doses (up to 0.25 µM), Huh7 cells)	antiviral activity against SARS-CoV-2 (in words) ([3]; Vero-E6 cells, non-cytotoxic concentrations)
CCC(CC)COC(=O)[C@H](C)N[P@](=O)(OC[C@H]1O[C@@](C#N)(c2ccc3c(N)ncnn23)[C@H](O)[C@@H]1O)Oc1ccccc1 [Remdesivir, reference compound]	strongly inhibited viral replication												
O=c1c(O[C@@H]2O[C@H](CO)[C@@H](O)[C@H](O)[C@H]2O)c(-c2ccc(O)c(O)c2)oc2cc(O)cc(O)c12 [Compound Q3G, Isoquercitrin, reference compound]		strong inhibition of infection											
CCCCCCCCCCCCCCCC[C@@H](O)Cc1cc(O)ccc1O [Compound 3, (2′R)-(2-(2-hydroxyoctadecyl)benzene-1,4-diol)]	no inhibition of infection	strong inhibition of infection	16	does not inhibit	50 ± 40 nM	18	50 nM	≤ 80%	800 ± 100 nM	900 ± 200 nM			
CCCCC=CCCCCCCCCCCCC(O)Cc1cc(O)ccc1O (stereo not drawn) [Compound 2, (2′R)-2-[(14′Z)-2′-hydroxynonadec-14′-en-1′-yl]benzene-1,4-diol]	no inhibition of infection	strong inhibition of infection	5	does not inhibit	100 ± 30 nM	2.5	200 nM	≤ 60%	500 ± 50 nM	500 ± 80 nM	up to 1 log		
CCCC=CCCCCCCCCCCCC(O)Cc1cc(O)ccc1O (stereo not drawn) [Compound 1, (2′. R)-2-[(14′Z)-2′-Hydroxyoctadec-14′-en-1′-yl]benzene-1,4-diol]									1300 ± 100 nM	1500 ± 200 nM		no antiviral effect; also recorded: no antiviral activity	no antiviral activity
